Common to all, as to assay: combination Emax (second highest fraction inhibited in the dose matrix, 72 h); higher = more inhibition; extreme values may be limits of the assay
For experiment [1], the system named is NAMALWA (Burkitt's Lymphoma). Put shortly: (§1)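 After 24 hours at 37°C and 5% CO2 in 1536-well plates, cells in DMEM/F12 or RPMI plus 10% FBS received two-drug dose matrices for 72 hours. Viability came from CellTiter-Glo 2.0 luminescence and was scaled as inhibition, anchored at 0 by vehicle wells and at 1 by blank wells. Combination Emax is taken as the second-highest inhibition in the matrix, and Bliss excess as the observed combination effect less EA + EB − EA·EB, with EA and EB the single-agent effects.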

For experiment [2], the system named is SCC-4 (Oral Cavity Carcinoma). Put shortly:
as §1

Experiment [3] deals with OAW-28 (Ovarian Carcinoma). The procedure, abridged: as §1
The subject of another experiment is NCI-H226 (Mesothelioma). Put shortly: as §1
The next experiment relates to SK-N-SH (Neuroblastoma). Put shortly: as §1
Experiment [4] deals with T84 (Colorectal Carcinoma). Put shortly: as §1
For experiment [5], the system named is NCI-H1963 (Small Cell Lung Carcinoma). Put shortly: as §1
Experiment [6] has as its system DBTRG-05MG (Glioblastoma). The procedure, abridged:
as §1

Experiment [7] deals with MS-1 (Small Cell Lung Carcinoma). Put shortly:
as §1

Experiment [8] relates to TUR (Acute Myeloid Leukemia). The procedure, abridged: as §1
In experiment [9] the test system is P30-OHK (B-Lymphoblastic Leukemia). Put shortly:
as §1

Experiment [10] deals with PA-TU-8988T (Pancreatic Carcinoma). The procedure, abridged: as §1
The subject of experiment [11] is C-33-A (Cervical Carcinoma). The procedure, abridged: as §1
Experiment [12] relates to ZR-75-30 (Breast Carcinoma). The procedure, abridged: as §1
Experiment [13] deals with CPC-N (Small Cell Lung Carcinoma). Put shortly: as §1
The test system of experiment [14] is NMC-G1 (Low Grade Glioma). Put shortly: as §1
Experiment [15] deals with SAT (Head and Neck Carcinoma). Put shortly:
as §1

The test system of another experiment is WM35 (Melanoma). The procedure, abridged: as §1
For experiment [16], the system named is KP-4 (Pancreatic Carcinoma). The procedure, abridged: as §1
Experiment [17] deals with Raji (Burkitt's Lymphoma). Put shortly: as §1

Consider 6 molecules from the supplement of paper PMC11061612.

`COc1cccc(OCCCN)c1-c1cc(Nc2cnc(C#N)cn2)n[nH]1` [Prexasertib] + CCc1c2c(nc3ccc(O)cc13)-c1cc3c(c(=O)n1C2)COC(=O)[C@]3(O)CC [SN-38] (first compound max 1 µM, 7x7, partner max 0.3 µM): the “combination Emax” value stood at 0.986 in experiment [1]; 0.917 in experiment [2]; 1 in experiment [3]; 0.4 with NCI-H226 (Mesothelioma); 0.947 with SK-N-SH (Neuroblastoma); 0.866 in experiment [4]. Besides, the “combination Emax” value is 1 in [5]; 0.624 in experiment [6]; 0.987 in [7]; 1 in experiment [8]; 0.995 in experiment [9]; 0.921 in experiment [10]. Besides, the “combination Emax” value in [11] is 0.992; in experiment [12] it was 0.14; in experiment [13], 1; in experiment [14], 0.315; in experiment [15], 0.618; in the experiment with WM35 (Melanoma), 0.726. Also, the “combination Emax” value in experiment [16] was found to be 0.9; in experiment [17], 0.983.

Take `COc1cccc(OCCCN)c1-c1cc(Nc2cnc(C#N)cn2)n[nH]1` [Prexasertib] + CN(C)CCCOc1ccc(-c2ccc3ncc4c(c3c2)n(C2CCOCC2)c(=O)n4C)cn1 [AZD0156] (first compound max 1 µM, 7x7, partner max 1 µM): the “combination Emax” value came to 0.991 in experiment [1]; 0.63 in [2]; 0.563 in [3]; 0.179 with NCI-H226 (Mesothelioma); 0.876 with SK-N-SH (Neuroblastoma); 0.815 in experiment [4]. In addition, the “combination Emax” value in experiment [5] came to 0.975; in experiment [6], 0.409; in experiment [7], 0.983; in experiment [8], 1; in experiment [9] it was 0.987; in experiment [10], 0.38. In addition, the “combination Emax” value in experiment [11] worked out at 0.842; in experiment [12], 0.117; in experiment [13] it was 1; in [14] it was 0.362; in experiment [15], 0.579; in the experiment on WM35 (Melanoma), 0.845. Also, the entries for the “combination Emax” value in experiment [16] and in experiment [17] were 0.434 and 0.959, respectively.

Consider `COc1cccc(OCCCN)c1-c1cc(Nc2cnc(C#N)cn2)n[nH]1` [Prexasertib] + C[C@@H]1COCCN1C2=NC(=NC(=C2)C3(CC3)[S@](=N)(=O)C)C4=C5C=CNC5=NC=C4 [AZD6738] (first compound max 1 µM, 7x7, partner max 10 µM), for which the “combination Emax” value in experiment [1] was determined as 0.986; in experiment [2] it was 0.676; in [3], 0.546; in the experiment on NCI-H226 (Mesothelioma), 0.176; in the experiment with SK-N-SH (Neuroblastoma) it was 0.901; in [4], 0.815. The “combination Emax” value in experiment [5] is 0.952; in experiment [6], 0.281; in experiment [7] it was 0.971; in [8] it was 1; in experiment [9], 0.981; in experiment [10] it was 0.46. For the same molecule, the “combination Emax” value in experiment [11] stood at 0.913; in [12], 0.166; in experiment [13], 1; in [14], 0.314; in experiment [15] it was 0.552; in the experiment with WM35 (Melanoma) it was 0.833. Besides, the results for the “combination Emax” value in [16] and in experiment [17] were 0.536 and 0.956, respectively.

Take `COc1cccc(OCCCN)c1-c1cc(Nc2cnc(C#N)cn2)n[nH]1` [Prexasertib] + Cc1cc2ncnn2cc1Nc1ncc2c(n1)n(C1CCOCC1)c(=O)n2C [AZD7648] (first compound max 1 µM, 7x7, partner max 10 µM): the “combination Emax” value in [1] was 0.994; in experiment [2], 0.609; in experiment [3], 0.462; in the experiment with NCI-H226 (Mesothelioma) it was 0.209; in the experiment on SK-N-SH (Neuroblastoma), 0.844; in experiment [4] it was 0.785. Further, the “combination Emax” value stood at 0.975 in experiment [5]; 0.315 in experiment [6]; 0.971 in experiment [7]; 1 in experiment [8]; 0.984 in experiment [9]; 0.532 in experiment [10]. In addition, the “combination Emax” value came to 0.882 in [11]; 0.17 in [12]; 1 in experiment [13]; 0.327 in experiment [14]; 0.573 in [15]; 0.772 in the experiment with WM35 (Melanoma). Further, the “combination Emax” value in [16] is 0.429; in experiment [17], 0.97.

With `COc1cccc(OCCCN)c1-c1cc(Nc2cnc(C#N)cn2)n[nH]1` [Prexasertib] + O=C(c1cc(Cc2n[nH]c(=O)c3ccccc23)ccc1F)N1CCN(C(=O)C2CC2)CC1 [Olaparib] (first compound max 1 µM, 7x7, partner max 10 µM), the “combination Emax” value was 0.983 in experiment [1]; 0.588 in experiment [2]; 0.48 in experiment [3]; 0.275 with NCI-H226 (Mesothelioma); 0.834 in the experiment on SK-N-SH (Neuroblastoma); 0.826 in experiment [4]. Besides, the “combination Emax” value came out at 0.908 in experiment [5]; 0.326 in experiment [6]; 0.896 in experiment [7]; 1 in experiment [8]; 0.991 in experiment [9]; 0.288 in [10]. Besides, the “combination Emax” value in [11] is 0.819; in experiment [12], 0.202; in experiment [13], 0.984; in experiment [14] it was 0.371; in [15], 0.595; in the experiment on WM35 (Melanoma) it was 0.79. Also, the “combination Emax” value in experiment [16] was found to be 0.641; in experiment [17], 0.982.

Take `COc1cc2c(cc1OCCCCCOc1cc3c(cc1OC)C(=O)N1C=C(C)C[C@H]1C=N3)N=C[C@@H]1CC(C)=CN1C2=O` [SG3199] + O=C(c1cc(Cc2n[nH]c(=O)c3ccccc23)ccc1F)N1CCN(C(=O)C2CC2)CC1 [Olaparib] (first compound max 0.001 µM, 7x7, partner max 10 µM): the “combination Emax” value was determined as 0.575 in experiment [1]; 0.0768 in [2]; 0.245 in experiment [3]; 0.0668 with NCI-H226 (Mesothelioma); 0.274 with SK-N-SH (Neuroblastoma); 0.0664 in experiment [4]. For the same molecule, the “combination Emax” value in [5] was determined as 0.293; in experiment [6] it was 0.114; in [7], 0.379; in experiment [8], 0.112; in experiment [9], 0.31; in experiment [10], 0.206. The “combination Emax” value in experiment [11] turned out to be 0.189; in [12], 0.308; in experiment [13], 0.243; in [14] it was 0.183; in [15], 0.17; in the experiment on WM35 (Melanoma), 0.144. For the same molecule, the entries for the “combination Emax” value in experiment [16] and in experiment [17] were 0.0915 and 0.43, respectively.
